≈ marks a conversion by molar mass, not a printed value. One block for each compound: values may come before it.
Experiments:
[1] = test system: Herpes simplex type 1 virus (HFEM strain); test: Plaque reduction of Herpes simplex type 1 virus (HFEM strain) in Vero cells; type: cell-based, Herpes simplex virus type 1; details: for ED50 (concentration reducing the plaque number at 50%): HSV-1 strain HFEM, 8640 min; for ED50 (concentration reducing the plaque number at 50%) / IC50: Vero cells; for IC50: Human alphaherpesvirus 1, 144 h, HSV-1 HFEM strain, 37° C., 6 days
Text: (§1) The same method was used to determine the ED50 (concentration reducing the plaque number at 50%) of the E/Z mixture against the KOS and SK16 strains of Herpes simplex virus type 1 and the ED50 of the E/Z mixture and the separated isomers ("peak 1" and "peak 2") against the HFEM strain.

[2] = african green monkey, vero cells
[3] = test system: Herpes simplex virus type 1 (KOS strain); test: Plaque reduction of Herpes simplex virus type 1, KOS strain; type: cell-based; details: Human alphaherpesvirus 1, 144 h; HSV-1 strain KOS, Vero cells; read-out: ED50 (concentration reducing the plaque number at 50%)
Text: as §1

[4] = test system: Herpes simplex virus type 1 (SCl6 strain); test: Plaque reduction of Herpes simplex virus type 1, SCl6 strain; type: cell-based; details: Human alphaherpesvirus 1, 144 h; HSV-1 strain SCl6, Vero cells; read-out: ED50 (concentration reducing the plaque number at 50%)
Text: as §1

[5] = Anti-host cell activity: growth of Vero cells; type: cell-based, African Green Monkey; details: monkey, vero cells; Vero cell growth versus antiviral activity; read-out: Therapeutic ratio
Experimental: (§2) Vero cells seeded at low density were grown in the presence of E/Z-5-(2-chloro-1,2-difluorovinyl)-2'-deoxyuridine for 72 h. During this time the cells doubled in number approximately once every 24 h. […] 5-(2-Chloro-1,2-difluorovinyl)-2'-deoxyuridine thus has a therapeutic ratio of >5.

[6] = test system: Vero cells; test: Anti-host cell activity: growth of Vero cells; type: cell-based, African Green Monkey; details: Vero cells, 72 h
Experimental: as §2

[7] = test system: human diploid fibroblast MRC-5 cell line; test: Anti-host cell activity: proliferation of human diploid fibroblast MRC-5 cells; type: cell-based; details: even at 200 μg/ml

Compound: O=c1[nH]c(=O)n([C@H]2C[C@H](O)[C@@H](CO)O2)cc1C(F)=C(F)Cl (single isomer, unassigned) [Peak 2]
- ED50 (concentration reducing the plaque number at 50%) [1]: 24 ± 6 µg/mL (≈ 73.9 µM)
- Activity of the separated isomers in the screens ([1]; in words, at the levels tested): Only one of the isomers is active at the levels tested

Compound: O=c1[nH]c(=O)n([C@H]2C[C@H](O)[C@@H](CO)O2)cc1I [5-iodo-2'-deoxyuridine, reference compound]
- IC50 [1]: 3 µg/mL (≈ 8.47 µM)
- MCC at 144 h [2]: > 100 µg/mL

Compound: O=c1[nH]c(=O)n([C@H]2C[C@H](O)[C@@H](CO)O2)cc1C(F)=C(F)Cl (single isomer, unassigned) [Peak 1]
- ED50 (concentration reducing the plaque number at 50%) [1]: > 100 µg/mL

- IC50 [1]: 14 µg/mL (≈ 43.1 µM)
- EC50 [3]: 20 µg/mL (≈ 61.6 µM)
- EC50 [4]: 21 µg/mL (≈ 64.7 µM)
- MCC at 144 h [2]: > 200 µg/mL
Compound: O=c1[nH]c(=O)n([C@H]2C[C@H](O)[C@@H](CO)O2)cc1C(F)=C(F)Cl [E/Z-5-(1,2-Difluoro-2-chlorovinyl)-2'-deoxyuridine]
- ED50 (concentration reducing the plaque number at 50%) ([1]; listed as E/Z): 24 ± 3 µg/mL (≈ 73.9 µM)
- selectivity ratio [5]: > 5
- Cell doubling time in the presence of compound [6]: ~24 h
- Depression of cell growth ([6]; 100 μg/ml): only slight depression of cell growth was observed
- Effect on cell proliferation [7]: little effect on cell proliferation

From patent US4383990A, “Antiviral agents, their preparation and use” (priority 1980, dated 1983)
